Here are results for twelve molecules from patent US11174260B2, “Compounds and methods for the treatment of parasitic diseases” (THE BROAD INSTITUTE, INC., priority 2017, dated 2021).

Assay [1] has as its system P. falciparum Dd2. Briefly: In vitro P. falciparum blood-stage culture and assay. It counts as cell-based. The conditions noted are these: Plasmodium falciparum, DD2, 72 h, 72 h incubation, SYBR Green I readout, read-out: Pf Dd2. How it is done: Strains of P. falciparum (Dd2, 3D7, D6, K1, NF54, V1/3, HB3, 7G8, FCB and TM90C2B) were obtained from the Malaria Research and Reference Reagent Resource Center (MR4). P. falciparum isolates were maintained with O-positive human blood in an atmosphere of 93% N2, 4% CO2, 3% O2 at 37° C. in complete culturing medium (10.4 g/L RPMI 1640, 5.94 g/L HEPES, 5 g/L albumax II, 50 mg/L hypoxanthine, 2.1 g/L sodium bicarbonate, 10% human serum and 43 mg/L gentamicin). Parasites were cultured in medium until parasitaemia reached 3-8%. Parasitaemia was determined by checking at least 500 red blood cells from a Giemsa-stained blood smear. For the compound screening, a parasite dilution at 2.0% parasitaemia and 2.0% haematocrit was created with medium. 25 μl of medium was dispensed into 384-well black, clear-bottom plates and 100 nl of each compound in DMSO was transferred into assay plates along with the control compound (mefloquine). Next, 25 μl of the parasite suspension in medium was dispensed into the assay plates giving a final parasitaemia of 1% and a final haematocrit of 1%. The assay plates were incubated for 72 h at 37° C. 10 μl of detection reagent consisting of 10×SYBR Green I (Invitrogen; supplied in 10,000× concentration) in lysis buffer (20 mM Tris-HCl, 5 mM EDTA, 0.16% (w/v) Saponin, 1.6% (v/v) Triton X-100) was dispensed into the assay plates. For optimal staining, the assay plates were left at room temperature for 24 h in the dark. The assay plates were read with 505 dichroic mirrors with 485 nm excitation and 530 nm emission settings in an Envision (PerkinElmer).

In assay [2] the test system is C. parvum. Briefly: C. parvum in vitro EC50 assay. Conditions: Cryptosporidium parvum; C. parvum oocysts in HCT-8 cells. It counts as cell-based. The method, then: Human ileocecal adenocarcinoma (HCT-8) cells were obtained from ATCC and maintained in T-75 tissue culture flasks with RPMI 1640 medium with HEPES, sodium pyruvate (1 mM), and L-glutamine (ATCC) supplemented with 10% horse serum (ATCC) and 120 U/ml penicillin and 120 μg/ml streptomycin. Cells were plated into 384-well, tissue culture-treated, black-walled, clearbottom microwell plates (BD Falcon) at a density of 8,850 cells/well and allowed to grow to confluence. They were then inoculated with 5.5×10^3 primed C. parvum oocysts (Bunchgrass Farms, Deary, Id.) suspended in inoculation medium (RPMI 1640 without horse serum). Oocysts were primed for excystation by following a previously described protocol (J. Eukaryot. Microbiol. 46:56S-57S). Briefly, oocysts were treated for 10 min with 10 mM HCl at 37° C., centrifuged, and treated with a 2 mM solution of sodium taurocholate (Sigma-Aldrich) in phosphate-buffered saline (PBS) with Ca^2+ and Mg^2+. The suspension was incubated for 10 min at 16° C. and then diluted in inoculation medium and added to each well. Infected cells were incubated at 37° C. for 3 h, at which point an equal volume of growth medium containing 20% horse serum (total serum concentration of 10%). Compounds were diluted and assayed at fixed doses of 0.12, 0.37, 1.1, 3.3, and 10 μM (each concentration, n=14) for the generation of EC50 curves. In the case of final EC50 curves, three wells were left uninfected but treated with each of the corresponding concentrations of the compound to assess for background staining. All curves were generated using the log[inhibitor] versus response_variable slope equation in GraphPad Prism (equation 3), with the bottom constraint set equal to 0.

The structures appear in SMILES notation.

Turning to `COc1ccc(NC(=O)N2C/C=C\CN3[C@H](CN(C)C)[C@H](c4ccc(C#Cc5ccccc5)cc4)[C@@H]3C2)cc1` [Example E4, (3Z,8R,9S,10S)-10-[(dimethylamino)methyl]-N-(4-methoxyphenyl)-9-[4-(2-phenylethynyl)phenyl]-1,6-diazabicyclo[6.2.0]dec-3-ene-6-carboxamide], the EC50 in assay [1] is under 50 nM; in assay [2], 68 nM.

On to `COc1ccc(NC(=O)N2C[C@H](O)[C@H](O)CN3[C@H](CN(C)C)[C@H](c4ccc(C#Cc5ccccc5)cc4)[C@@H]3C2)cc1` [Example E6, (3R,4S,8R,9S,10S)-10-((dimethylamino)methyl)-3,4-dihydroxy-N-(4-methoxyphenyl)-9-(4-(phenylethynyl)phenyl)-1,6-diazabicyclo[6.2.0]decane-6-carboxamide], for which the EC50 is under 50 nM in assay [1] and 95 nM in assay [2].

As for `COc1ccc(NC(=O)N2CC[C@H](O)CN3[C@H](CN(C)C)[C@H](c4ccc(C#Cc5ccccc5)cc4)[C@@H]3C2)cc1` [Example E15, (3S,8R,9S,10S)-10-[(dimethylamino)methyl]-3-hydroxy-N-(4-methoxyphenyl)-9-[4-(2-phenylethynyl)phenyl]-1,6-diazabicyclo[6.2.0]decane-6-carboxamide], the results for the EC50 in assay [1] and in assay [2] were under 50 nM and 33 nM, respectively.

On to `COc1ccc(NC(=O)N2CCC(CO)CN3[C@H](CN(C)C)[C@H](c4ccc(C#Cc5ccccc5)cc4)[C@@H]3C2)cc1` (stereo partly drawn) [Example E26, (8R,9S,10S)-10-[(dimethylamino)methyl]-3-(hydroxymethyl)-N-(4-methoxyphenyl)-9-[4-(2-phenylethynyl)phenyl]-1,6-diazabicyclo[6.2.0]decane-6-carboxamide], for which the EC50 in assay [1] is under 50 nM; in assay [2], 98 nM.

With `COc1ccc(NC(=O)N2CCC(CN(C)C)CN3[C@H](CO)[C@H](c4ccc(C#Cc5ccccc5)cc4)[C@@H]3C2)cc1` (stereo partly drawn) [Example E27, (8R,9R,10S)-3-[(dimethylamino)methyl]-10-(hydroxymethyl)-N-(4-methoxyphenyl)-9-[4-(2-phenylethynyl)phenyl]-1,6-diazabicyclo[6.2.0]decane-6-carboxamide], the figures for the EC50 in assay [1] and in assay [2] were under 50 nM and 134 nM, respectively.

In the case of `COc1ccc(NC(=O)N2CC(CN(C)C)CCN3[C@H](CN(C)C)[C@H](c4ccc(C#Cc5ccccc5)cc4)[C@@H]3C2)cc1` (stereo partly drawn) [Example E32, (8R,9S,10S)-4,10-bis[(dimethylamino)methyl]-N-(4-methoxyphenyl)-9-[4-(2-phenylethynyl)phenyl]-1,6-diazabicyclo[6.2.0]decane-6-carboxamide], in assay [1], the EC50 was over 250 nM.

As to `COc1ccc(NC(=O)N2CC(CO)CCN3[C@H](CN(C)C)[C@H](c4ccc(C#Cc5ccccc5)cc4)[C@@H]3C2)cc1` (stereo partly drawn) [Example E33, (8R,9S,10S)-10-[(dimethylamino)methyl]-4-(hydroxymethyl)-N-(4-methoxyphenyl)-9-[4-(2-phenylethynyl)phenyl]-1,6-diazabicyclo[6.2.0]decane-6-carboxamide], the EC50 in assay [1] was under 50 nM.

Regarding `COc1ccc(NC(=O)N2CCCC(C)N3[C@H](CN(C)C)[C@H](c4ccc(C#Cc5ccccc5)cc4)[C@@H]3C2)cc1` (stereo partly drawn) [Example E34, (8R,9S,10S)-10-((dimethylamino)methyl)-N-(4-methoxyphenyl)-2-methyl-9-(4-(phenylethynyl)phenyl)-1,6-diazabicyclo[6.2.0]decane-6-carboxamide], in assay [1], the EC50 is under 50 nM.

With `COc1ccc(NC(=O)N2CCCC(C)N3[C@H](CO)[C@H](c4ccc(C#Cc5ccccc5)cc4)[C@@H]3C2)cc1` (stereo partly drawn) [Example E35, (8R,9R,10S)-10-(hydroxymethyl)-N-(4-methoxyphenyl)-2-methyl-9-[4-(2-phenylethynyl)phenyl]-1,6-diazabicyclo[6.2.0]decane-6-carboxamide], in assay [1], the EC50 was under 50 nM.

On to `COc1ccc(NC(=O)N2C[C@@H](O)[C@@H](O)CN3C[C@H](c4ccc(C#Cc5ccccc5)cc4)[C@@H]3C2)cc1` [Example E36, (3S,4R,8R,9S)-3,4-dihydroxy-N-(4-methoxyphenyl)-9-[4-(2-phenylethynyl)phenyl]-1,6-diazabicyclo[6.2.0]decane-6-carboxamide], for which the results for the EC50 in assay [1] and in assay [2] were 50 to 250 nM and 6 nM, respectively.

In the case of `COc1ccc(NC(=O)N2C[C@H](O)[C@H](O)CN3C[C@H](c4ccc(C#Cc5ccccc5)cc4)[C@@H]3C2)cc1` [Example E37, (3R,4S,8R,9S)-3,4-dihydroxy-N-(4-methoxyphenyl)-9-[4-(2-phenylethynyl)phenyl]-1,6-diazabicyclo[6.2.0]decane-6-carboxamide], in assay [1], the EC50 lay in the range of 50 to 250 nM.

As for `CN(C)C[C@@H]1[C@H](c2ccc(C#Cc3ccccc3)cc2)[C@@H]2CN(C(=O)Nc3ccc(OC4CC4)cc3)C[C@H](O)[C@H](O)CN12` [Example E38, (3R,4S,8R,9S,10S)-N-(4-cyclopropoxyphenyl)-10-((dimethylamino)methyl)-3,4-dihydroxy-9-(4-(phenylethynyl)phenyl)-1,6-diazabicyclo[6.2.0]decane-6-carboxamide], the EC50 in assay [1] is under 50 nM.
